{
  "source": "paper PMC7041945",
  "about": "“Misfolded proteins bind and activate death receptor 5 to trigger apoptosis during unresolved endoplasmic reticulum stress” (eLife, 2020)",
  "system": "CHOP, BiP, and DR5 mRNA in HCT116 cells",
  "test": "qPCR of UPR target transcripts (CHOP, BiP, DR5)",
  "assay_type": "cell-based, Homo sapiens",
  "conditions": "Rep 2; for avg. fold induction CHOP / avg. fold induction DR5 total / fold induction CHOP / fold induction DR5 total: relative to empty traffo; for avg. fold induction CHOP / avg. fold induction DR5 total: mean of 3 replicates",
  "protocol": "Cells were grown in 6-well plates and harvested with 0.5 ml of TRIzol reagent (Life Technologies) per manufacturer’s protocol to extract RNA. For cDNA synthesis, 500 ng of total RNA was reverse transcribed with 2 μl of the SuperScript VILO master mix (Life Technologies # 11755050) in a total reaction volume of 10 μl following the manufacturer’s protocol for reaction temperature and duration. The reverse transcription product was diluted to 200 μl with 10 mM Tris-HCl pH 8.2 and used at 1:100 dilution for subsequent RT-PCR reactions.\nPCR samples were prepared as described by manufacturer’s protocols from iQ SYBR Green Supermix (BioRad #17088800).\nFor each experiment, qRT-PCR reactions were set up in triplicate and run using a CFX96 Real Time System (Bio-Rad). Quantitation cycles were determined with CFX Manager 3.0 software (Bio-Rad) and then normalized to GAPDH as an internal control.",
  "data": [
    {"substance": "INS-GFP: GFP-tagged proinsulin expressed from plasmid", "values": [
      {"measurement": "avg. fold induction CHOP", "setting": "3 hr", "value": 2.592},
      {"measurement": "avg. fold induction DR5 total", "setting": "3 hr", "value": 0.7038},
      {"measurement": "fold induction CHOP", "setting": "3 hr, replicate 1", "value": 2.854},
      {"measurement": "fold induction DR5 total", "setting": "3 hr, replicate 1", "value": 0.6229},
      {"measurement": "fold induction CHOP", "setting": "3 hr, replicate 2", "value": 2.329},
      {"measurement": "fold induction DR5 total", "setting": "3 hr, replicate 2", "value": 0.8572},
      {"measurement": "fold induction CHOP", "setting": "3 hr, replicate 3", "value": 2.592},
      {"measurement": "fold induction DR5 total", "setting": "3 hr, replicate 3", "value": 0.6314},
      {"measurement": "2^-(deltaCq) CHOP", "setting": "3 hr, replicate 1", "value": 0.03284},
      {"measurement": "2^-(deltaCq) DR5 total", "setting": "3 hr, replicate 1", "value": 0.01816},
      {"measurement": "Cq CHOP", "setting": "3 hr, replicate 1", "value": 24.0903},
      {"measurement": "Cq DR5 total", "setting": "3 hr, replicate 1", "value": 24.9448},
      {"measurement": "Cq(sample) - avg Cq(GAPDH), CHOP", "setting": "3 hr, replicate 1", "value": 4.928},
      {"measurement": "Cq(sample) - avg Cq(GAPDH), DR5 total", "setting": "3 hr, replicate 1", "value": 5.783},
      {"measurement": "2^-(deltaCq) CHOP", "setting": "3 hr, replicate 2", "value": 0.0268},
      {"measurement": "2^-(deltaCq) DR5 total", "setting": "3 hr, replicate 2", "value": 0.02499},
      {"measurement": "Cq CHOP", "setting": "3 hr, replicate 2", "value": 24.3837},
      {"measurement": "Cq DR5 total", "setting": "3 hr, replicate 2", "value": 24.4842},
      {"measurement": "Cq(sample) - avg Cq(GAPDH), CHOP", "setting": "3 hr, replicate 2", "value": 5.2218},
      {"measurement": "Cq(sample) - avg Cq(GAPDH), DR5 total", "setting": "3 hr, replicate 2", "value": 5.322},
      {"measurement": "2^-(deltaCq) CHOP", "setting": "3 hr, replicate 3", "value": 0.02982},
      {"measurement": "2^-(deltaCq) DR5 total", "setting": "3 hr, replicate 3", "value": 0.01841},
      {"measurement": "Cq CHOP", "setting": "3 hr, replicate 3", "value": 24.2295},
      {"measurement": "Cq DR5 total", "setting": "3 hr, replicate 3", "value": 24.9253},
      {"measurement": "Cq(sample) - avg Cq(GAPDH), CHOP", "setting": "3 hr, replicate 3", "value": 5.068},
      {"measurement": "Cq(sample) - avg Cq(GAPDH), DR5 total", "setting": "3 hr, replicate 3", "value": 5.763},
      {"measurement": "avg. fold induction CHOP", "setting": "7 hr", "value": 6.389},
      {"measurement": "avg. fold induction DR5 total", "setting": "7 hr", "value": 1.383},
      {"measurement": "fold induction CHOP", "setting": "7 hr, replicate 1", "value": 6.347},
      {"measurement": "fold induction DR5 total", "setting": "7 hr, replicate 1", "value": 1.604},
      {"measurement": "fold induction CHOP", "setting": "7 hr, replicate 2", "value": 6.646},
      {"measurement": "fold induction DR5 total", "setting": "7 hr, replicate 2", "value": 1.272},
      {"measurement": "fold induction CHOP", "setting": "7 hr, replicate 3", "value": 6.175},
      {"measurement": "fold induction DR5 total", "setting": "7 hr, replicate 3", "value": 1.275},
      {"measurement": "2^-(deltaCq) CHOP", "setting": "7 hr, replicate 1", "value": 0.07302},
      {"measurement": "2^-(deltaCq) DR5 total", "setting": "7 hr, replicate 1", "value": 0.04677},
      {"measurement": "Cq CHOP", "setting": "7 hr, replicate 1", "value": 23.0759},
      {"measurement": "Cq DR5 total", "setting": "7 hr, replicate 1", "value": 23.7188},
      {"measurement": "Cq(sample) - avg Cq(GAPDH), CHOP", "setting": "7 hr, replicate 1", "value": 3.776},
      {"measurement": "Cq(sample) - avg Cq(GAPDH), DR5 total", "setting": "7 hr, replicate 1", "value": 4.418},
      {"measurement": "2^-(deltaCq) CHOP", "setting": "7 hr, replicate 2", "value": 0.07646},
      {"measurement": "2^-(deltaCq) DR5 total", "setting": "7 hr, replicate 2", "value": 0.03708},
      {"measurement": "Cq CHOP", "setting": "7 hr, replicate 2", "value": 23.0096},
      {"measurement": "Cq DR5 total", "setting": "7 hr, replicate 2", "value": 24.0535},
      {"measurement": "Cq(sample) - avg Cq(GAPDH), CHOP", "setting": "7 hr, replicate 2", "value": 3.709},
      {"measurement": "Cq(sample) - avg Cq(GAPDH), DR5 total", "setting": "7 hr, replicate 2", "value": 4.753},
      {"measurement": "2^-(deltaCq) CHOP", "setting": "7 hr, replicate 3", "value": 0.07103},
      {"measurement": "2^-(deltaCq) DR5 total", "setting": "7 hr, replicate 3", "value": 0.03717},
      {"measurement": "Cq CHOP", "setting": "7 hr, replicate 3", "value": 23.1157},
      {"measurement": "Cq DR5 total", "setting": "7 hr, replicate 3", "value": 24.0502},
      {"measurement": "Cq(sample) - avg Cq(GAPDH), CHOP", "setting": "7 hr, replicate 3", "value": 3.815},
      {"measurement": "Cq(sample) - avg Cq(GAPDH), DR5 total", "setting": "7 hr, replicate 3", "value": 4.75},
      {"measurement": "avg. fold induction CHOP", "setting": "24 hr", "value": 5.115},
      {"measurement": "avg. fold induction DR5 total", "setting": "24 hr", "value": 1.535},
      {"measurement": "fold induction CHOP", "setting": "24 hr, replicate 1", "value": 6.073},
      {"measurement": "fold induction DR5 total", "setting": "24 hr, replicate 1", "value": 1.494},
      {"measurement": "fold induction CHOP", "setting": "24 hr, replicate 2", "value": 4.514},
      {"measurement": "fold induction DR5 total", "setting": "24 hr, replicate 2", "value": 1.718},
      {"measurement": "fold induction CHOP", "setting": "24 hr, replicate 3", "value": 4.759},
      {"measurement": "fold induction DR5 total", "setting": "24 hr, replicate 3", "value": 1.392},
      {"measurement": "2^-(deltaCq) CHOP", "setting": "24 hr, replicate 1", "value": 0.06987},
      {"measurement": "2^-(deltaCq) DR5 total", "setting": "24 hr, replicate 1", "value": 0.04358},
      {"measurement": "Cq CHOP", "setting": "24 hr, replicate 1", "value": 23.5439},
      {"measurement": "Cq DR5 total", "setting": "24 hr, replicate 1", "value": 24.225},
      {"measurement": "Cq(sample) - avg Cq(GAPDH), CHOP", "setting": "24 hr, replicate 1", "value": 3.839},
      {"measurement": "Cq(sample) - avg Cq(GAPDH), DR5 total", "setting": "24 hr, replicate 1", "value": 4.52},
      {"measurement": "2^-(deltaCq) CHOP", "setting": "24 hr, replicate 2", "value": 0.05193},
      {"measurement": "2^-(deltaCq) DR5 total", "setting": "24 hr, replicate 2", "value": 0.05009},
      {"measurement": "Cq CHOP", "setting": "24 hr, replicate 2", "value": 23.972},
      {"measurement": "Cq DR5 total", "setting": "24 hr, replicate 2", "value": 24.0239},
      {"measurement": "Cq(sample) - avg Cq(GAPDH), CHOP", "setting": "24 hr, replicate 2", "value": 4.267},
      {"measurement": "Cq(sample) - avg Cq(GAPDH), DR5 total", "setting": "24 hr, replicate 2", "value": 4.319},
      {"measurement": "2^-(deltaCq) CHOP", "setting": "24 hr, replicate 3", "value": 0.05475},
      {"measurement": "2^-(deltaCq) DR5 total", "setting": "24 hr, replicate 3", "value": 0.04058},
      {"measurement": "Cq CHOP", "setting": "24 hr, replicate 3", "value": 23.8955},
      {"measurement": "Cq DR5 total", "setting": "24 hr, replicate 3", "value": 24.3278}
    ]}
  ]
}
